Laboratory results reported in ChEMBL document CHEMBL1151071, “Inhibition of human leukocyte elastase. 5. Inhibition by 6-alkyl substituted penem benzyl esters” (Bioorg Med Chem Lett, 1993).
pIC50, pKi: −log10 of the molar value.

Assays:
Neutrophil elastase [1] = target: T1, Neutrophil elastase (Homo sapiens, UniProt P08246); assay: Inhibition of Human leukocyte elastase
T1 sequence (P08246 whole entry): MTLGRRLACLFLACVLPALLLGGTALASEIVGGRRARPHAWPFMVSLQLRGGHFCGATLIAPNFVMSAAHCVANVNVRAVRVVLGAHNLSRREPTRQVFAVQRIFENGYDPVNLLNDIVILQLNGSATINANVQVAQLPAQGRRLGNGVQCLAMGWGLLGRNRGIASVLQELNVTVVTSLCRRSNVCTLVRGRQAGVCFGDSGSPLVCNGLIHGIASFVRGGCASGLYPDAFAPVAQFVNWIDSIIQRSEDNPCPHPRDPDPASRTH

Neutrophil elastase [2] = target: T1, Neutrophil elastase; assay: Compound was tested for its inhibitory effect against Human leukocyte elastase (HLE)

## CC1=C(C(=O)OCc2ccccc2)N2C(=O)C[C@H]2S1 (racemic)
Neutrophil elastase [1]
  pIC50: < 4.70
Neutrophil elastase [2]
  pKi: 3.51
